{"source": "ChEMBL document CHEMBL5523771", "about": "“Hydrazides as Inhibitors of Histone Deacetylases” (J Med Chem, 2024)", "key": {"[1]": {"biological_target": "T1, Histone deacetylase 1 (Homo sapiens, UniProt Q13547)", "T1 sequence (Q13547 whole entry)": "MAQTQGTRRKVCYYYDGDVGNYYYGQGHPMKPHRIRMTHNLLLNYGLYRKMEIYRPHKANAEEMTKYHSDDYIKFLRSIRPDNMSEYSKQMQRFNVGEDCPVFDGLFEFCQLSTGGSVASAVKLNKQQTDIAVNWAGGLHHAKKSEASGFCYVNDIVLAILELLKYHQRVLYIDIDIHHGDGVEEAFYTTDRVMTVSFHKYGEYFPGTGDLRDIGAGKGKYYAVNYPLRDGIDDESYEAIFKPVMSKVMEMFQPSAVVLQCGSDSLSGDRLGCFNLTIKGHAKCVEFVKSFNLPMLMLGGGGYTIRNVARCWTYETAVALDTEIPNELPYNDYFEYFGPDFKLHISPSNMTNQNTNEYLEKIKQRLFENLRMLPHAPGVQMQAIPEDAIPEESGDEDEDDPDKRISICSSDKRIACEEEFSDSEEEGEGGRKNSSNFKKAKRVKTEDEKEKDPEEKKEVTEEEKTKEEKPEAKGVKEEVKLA", "assay": "Inhibition of human HDAC1"}, "[2]": {"biological_target": "T2, Histone deacetylase 2 (Homo sapiens, UniProt Q92769)", "T2 sequence (Q92769 whole entry)": "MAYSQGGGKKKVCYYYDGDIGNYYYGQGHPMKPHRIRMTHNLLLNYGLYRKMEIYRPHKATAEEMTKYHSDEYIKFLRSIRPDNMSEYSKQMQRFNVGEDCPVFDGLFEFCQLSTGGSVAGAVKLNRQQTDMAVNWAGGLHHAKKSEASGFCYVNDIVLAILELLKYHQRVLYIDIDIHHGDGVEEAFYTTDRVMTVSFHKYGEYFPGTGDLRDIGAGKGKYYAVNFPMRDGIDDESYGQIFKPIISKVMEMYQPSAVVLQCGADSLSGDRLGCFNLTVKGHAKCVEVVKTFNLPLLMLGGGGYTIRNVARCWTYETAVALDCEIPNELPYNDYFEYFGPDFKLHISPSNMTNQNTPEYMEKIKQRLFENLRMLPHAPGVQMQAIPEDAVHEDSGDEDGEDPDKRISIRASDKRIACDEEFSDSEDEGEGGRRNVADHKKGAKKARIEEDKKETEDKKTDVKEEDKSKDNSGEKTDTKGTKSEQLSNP", "assay": "Inhibition of human HDAC2"}, "[3]": {"biological_target": "T3, Histone deacetylase 3 (Homo sapiens, UniProt O15379)", "T3 sequence (O15379 whole entry)": "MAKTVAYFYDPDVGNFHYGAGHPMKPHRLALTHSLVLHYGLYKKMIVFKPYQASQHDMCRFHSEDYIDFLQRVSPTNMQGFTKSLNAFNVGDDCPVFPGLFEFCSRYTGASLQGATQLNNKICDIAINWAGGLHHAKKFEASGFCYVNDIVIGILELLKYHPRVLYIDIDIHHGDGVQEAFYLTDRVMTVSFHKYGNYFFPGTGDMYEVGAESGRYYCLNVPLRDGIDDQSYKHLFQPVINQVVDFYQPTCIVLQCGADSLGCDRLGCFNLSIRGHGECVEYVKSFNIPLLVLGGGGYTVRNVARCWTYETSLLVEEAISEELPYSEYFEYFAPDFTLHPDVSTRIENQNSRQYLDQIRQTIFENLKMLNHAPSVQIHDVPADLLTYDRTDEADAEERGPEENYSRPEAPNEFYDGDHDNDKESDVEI", "assay": "Inhibition of human HDAC3"}, "[4]": {"biological_target": "T1, Histone deacetylase 1", "assay": "Inhibition of HDAC1 (unknown origin)"}, "[5]": {"biological_target": "T2, Histone deacetylase 2", "assay": "Inhibition of HDAC2 (unknown origin)"}, "[6]": {"biological_target": "T3, Histone deacetylase 3", "assay": "Inhibition of HDAC3 (unknown origin)"}, "[7]": {"biological_target": "T4, Histone deacetylase 8 (Homo sapiens, UniProt Q9BY41)", "T4 sequence (Q9BY41 whole entry)": "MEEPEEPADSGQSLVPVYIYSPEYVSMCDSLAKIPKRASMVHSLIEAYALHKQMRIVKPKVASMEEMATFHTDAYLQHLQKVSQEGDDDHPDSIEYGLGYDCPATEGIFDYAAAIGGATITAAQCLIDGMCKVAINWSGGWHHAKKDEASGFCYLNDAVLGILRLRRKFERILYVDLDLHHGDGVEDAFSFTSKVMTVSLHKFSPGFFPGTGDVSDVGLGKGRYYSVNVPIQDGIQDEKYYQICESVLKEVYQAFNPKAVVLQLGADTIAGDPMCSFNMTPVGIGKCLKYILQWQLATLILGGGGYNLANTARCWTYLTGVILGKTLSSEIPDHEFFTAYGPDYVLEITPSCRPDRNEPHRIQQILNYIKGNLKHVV", "assay": "Inhibition of HDAC8 (unknown origin)"}, "[8]": {"biological_target": "Histone deacetylase 4 (Homo sapiens, UniProt P56524)", "sequence (P56524 whole entry)": "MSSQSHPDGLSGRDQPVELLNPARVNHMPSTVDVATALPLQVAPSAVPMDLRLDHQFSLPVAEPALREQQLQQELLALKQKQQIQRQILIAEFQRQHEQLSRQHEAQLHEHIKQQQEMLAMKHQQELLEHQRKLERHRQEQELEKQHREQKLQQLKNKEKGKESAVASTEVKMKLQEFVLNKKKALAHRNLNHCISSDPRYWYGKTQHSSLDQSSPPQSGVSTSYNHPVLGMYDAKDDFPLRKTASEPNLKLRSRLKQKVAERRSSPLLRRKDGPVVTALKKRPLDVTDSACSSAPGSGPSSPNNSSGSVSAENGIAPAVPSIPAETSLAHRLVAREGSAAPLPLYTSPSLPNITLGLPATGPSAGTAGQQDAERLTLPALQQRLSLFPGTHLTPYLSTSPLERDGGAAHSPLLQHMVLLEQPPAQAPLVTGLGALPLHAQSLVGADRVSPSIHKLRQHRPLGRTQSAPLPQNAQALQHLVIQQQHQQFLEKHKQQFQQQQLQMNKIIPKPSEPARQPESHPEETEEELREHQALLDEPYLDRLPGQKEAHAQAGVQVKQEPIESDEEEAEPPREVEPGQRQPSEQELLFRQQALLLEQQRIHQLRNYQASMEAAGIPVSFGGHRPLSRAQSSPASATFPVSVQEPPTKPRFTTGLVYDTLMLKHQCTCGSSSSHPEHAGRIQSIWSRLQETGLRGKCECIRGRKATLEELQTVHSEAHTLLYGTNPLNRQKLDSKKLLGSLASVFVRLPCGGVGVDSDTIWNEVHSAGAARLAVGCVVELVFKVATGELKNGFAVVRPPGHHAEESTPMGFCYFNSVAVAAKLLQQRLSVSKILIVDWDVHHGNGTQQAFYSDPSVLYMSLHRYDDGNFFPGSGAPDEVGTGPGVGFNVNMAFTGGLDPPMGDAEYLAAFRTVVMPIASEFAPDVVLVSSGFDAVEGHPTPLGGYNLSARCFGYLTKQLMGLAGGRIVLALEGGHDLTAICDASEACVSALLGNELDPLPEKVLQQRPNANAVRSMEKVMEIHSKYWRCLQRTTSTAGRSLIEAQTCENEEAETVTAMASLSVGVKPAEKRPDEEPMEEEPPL", "assay": "Inhibition of HDAC4 (unknown origin)"}, "[9]": {"assay": "Inhibition of human HDAC1 (379 to 382 residues) using RHKKAc-AMC as substrate incubated for 60 mins by […] assay"}, "[10]": {"biological_target": "T5, Protein deacetylase HDAC6 (Homo sapiens, UniProt Q9UBN7)", "T5 sequence (Q9UBN7 whole entry)": "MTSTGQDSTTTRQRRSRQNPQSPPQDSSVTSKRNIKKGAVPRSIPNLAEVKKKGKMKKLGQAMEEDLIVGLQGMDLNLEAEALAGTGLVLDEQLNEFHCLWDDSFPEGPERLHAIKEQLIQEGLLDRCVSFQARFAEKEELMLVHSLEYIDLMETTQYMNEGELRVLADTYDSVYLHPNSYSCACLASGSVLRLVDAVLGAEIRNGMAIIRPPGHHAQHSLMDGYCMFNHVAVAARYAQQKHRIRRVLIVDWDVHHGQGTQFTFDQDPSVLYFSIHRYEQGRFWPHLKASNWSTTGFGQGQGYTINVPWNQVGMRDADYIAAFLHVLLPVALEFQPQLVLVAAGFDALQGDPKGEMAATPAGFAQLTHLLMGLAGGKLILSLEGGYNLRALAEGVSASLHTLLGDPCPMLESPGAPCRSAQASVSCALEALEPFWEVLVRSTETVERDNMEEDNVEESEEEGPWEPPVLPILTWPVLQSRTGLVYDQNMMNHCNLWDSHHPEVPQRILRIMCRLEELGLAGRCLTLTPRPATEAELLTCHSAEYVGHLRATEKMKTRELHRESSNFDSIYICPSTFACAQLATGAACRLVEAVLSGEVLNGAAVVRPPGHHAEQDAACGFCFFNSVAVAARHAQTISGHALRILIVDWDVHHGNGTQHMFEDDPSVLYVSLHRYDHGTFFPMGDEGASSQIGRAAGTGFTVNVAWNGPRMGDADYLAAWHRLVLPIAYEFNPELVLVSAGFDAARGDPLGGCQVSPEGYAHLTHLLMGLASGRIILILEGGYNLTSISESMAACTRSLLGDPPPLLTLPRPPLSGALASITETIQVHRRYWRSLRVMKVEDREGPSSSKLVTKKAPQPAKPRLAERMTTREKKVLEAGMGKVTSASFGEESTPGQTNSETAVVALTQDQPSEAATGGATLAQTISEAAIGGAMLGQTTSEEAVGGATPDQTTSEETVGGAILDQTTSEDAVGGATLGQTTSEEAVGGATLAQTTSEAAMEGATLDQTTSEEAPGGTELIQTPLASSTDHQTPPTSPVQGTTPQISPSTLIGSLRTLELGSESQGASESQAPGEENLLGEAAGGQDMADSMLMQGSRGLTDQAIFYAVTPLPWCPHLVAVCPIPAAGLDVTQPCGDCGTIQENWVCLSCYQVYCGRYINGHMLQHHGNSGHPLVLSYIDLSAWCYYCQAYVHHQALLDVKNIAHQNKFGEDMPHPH", "assay": "Inhibition of HDAC6 (unknown origin)"}, "[11]": {"biological_target": "T6, Histone deacetylase 11 (Homo sapiens, UniProt Q96DB2)", "T6 sequence (Q96DB2 whole entry)": "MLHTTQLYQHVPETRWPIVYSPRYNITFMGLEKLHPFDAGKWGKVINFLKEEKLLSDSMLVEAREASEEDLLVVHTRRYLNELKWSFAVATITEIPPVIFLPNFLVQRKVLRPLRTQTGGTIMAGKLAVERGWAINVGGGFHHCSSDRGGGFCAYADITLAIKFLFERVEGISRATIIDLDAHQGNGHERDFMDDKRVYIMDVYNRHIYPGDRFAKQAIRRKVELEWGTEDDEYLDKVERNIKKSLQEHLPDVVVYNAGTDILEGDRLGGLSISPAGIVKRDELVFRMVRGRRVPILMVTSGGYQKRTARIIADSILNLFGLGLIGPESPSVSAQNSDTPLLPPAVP", "assay": "Inhibition of human recombinant full length FLAG-tagged HDAC11 transfected in HEK293T cells using Ac-ETDKrnyr-AMC as substrate incubated for 30 mins by fluorescence based analysis"}}}
{"smiles": "CCCNNC(=O)CCCCCCC(=O)Nc1ccccc1", "values": [{"measurement": "IC50", "setting": "[1]", "value": 0.828, "unit": "µM"}, {"measurement": "IC50", "setting": "[2]", "value": 0.53, "unit": "µM"}, {"measurement": "IC50", "setting": "[3]", "value": 0.379, "unit": "µM"}]}
{"smiles": "CCCC(CCC)C(=O)N[C@@H](Cc1ccccc1)C(=O)NNc1ccccc1", "values": [{"measurement": "IC50", "setting": "[4]", "value": 0.39, "unit": "µM"}, {"measurement": "IC50", "setting": "[5]", "value": 2.02, "unit": "µM"}, {"measurement": "IC50", "setting": "[6]", "value": 1.49, "unit": "µM"}, {"measurement": "IC50", "setting": "[7]", "value": 1.54, "unit": "µM"}, {"measurement": "IC50", "setting": "[8]", "value": 3.18, "unit": "µM"}]}
{"smiles": "CCCCNNC(=O)c1ccc(Br)cc1", "values": [{"measurement": "IC50", "setting": "[9]", "value": 0.133, "unit": "µM"}]}
{"smiles": "CCCC(CCC)C(=O)O", "note": "[VALPROIC ACID]", "values": [{"measurement": "IC50", "setting": "[8]", "value": "> 100", "unit": "µM"}]}
{"smiles": "CCCNNC(=O)c1ccc(Nc2nccc(N(C)c3ccc4c(C)n(C)cc4c3)n2)cc1", "values": [{"measurement": "IC50", "setting": "[4]", "value": 0.00042, "unit": "µM"}, {"measurement": "IC50", "setting": "[10]", "value": 8.96, "unit": "µM"}]}
{"smiles": "CCCCCCCCCCCCCCCCNNC(=O)c1ccc(N(C)C)cc1", "values": [{"measurement": "IC50", "setting": "[11]", "value": 0.91, "unit": "µM"}]}
